Like-named read-outs stand apart in the source and are kept apart here.
Assays:
[1] = tested on: HL60 cells (myeloid); experiment: cells; type: cell-based, human; settings: Homo sapiens, HL-60, 2 h
[2] = tested on: 8392 cells (B-cell); experiment: cells; type: cell-based; settings: 2 h
[3] = tested on: 242, melanoma; experiment: inhibition of thymidine incorporation after two hour exposure, 242; type: cell-based; settings: 2 h; Table 1; 242, two hour exposure
Description: (§1) To assess cytotoxic effects, various concentrations of illudins were added to cultures of cells for 48 hours, then cell growth/viability was determined by trypan blue exclusion. As an alternative to 48 hour continuous exposure studies, cells were plated in liquid culture in 96 well plates, exposed to various concentrations of illudins for 2 hours, pulsed with [^3 H]-thymidine for one to two hours and harvested onto glass filters. The filter papers were added to vials containing scintillation fluid and residual radioactivity determined in a beta (scintillation) counter.
(§2) two hour exposure to the toxins (N - 3).

[4] = tested on: 547, ovarian; experiment: inhibition of thymidine incorporation after two hour exposure, 547; type: cell-based; settings: 2 h; Table 1; 547, two hour exposure
Description: as §1, §2

[5] = tested on: MCF-7, breast; experiment: cells; type: cell-based, human; settings: Homo sapiens, MCF7, 2 h
[6] = tested on: MDA-231, breast; experiment: cells; type: cell-based; settings: Homo sapiens, MDA-MB-231, 2 h
[7] = tested on: MV522 cells; experiment: cells; type: cell-based, human; settings: Homo sapiens, MV522, 2 h, read-out: Two hour IC50
[8] = tested on: MDA-231 parent (Breast) cells; experiment: sensitivity of mdr lines, MDA-231 parent; type: cell-based; settings: Homo sapiens, MDA-MB-231
[9] = tested on: MDA-231 3-1 (gp170+) cells; experiment: sensitivity of mdr lines, MDA-231 3-1; type: cell-based; settings: Homo sapiens, MDA-MB-231
[10] = tested on: MCF7-wt parent (Breast) cells; experiment: sensitivity of mdr lines, MCF7-wt parent; type: cell-based; settings: Homo sapiens; MCF7-wt Parent; read-out: Sensitivity of mdr lines
[11] = tested on: MCF7 ADR (GSH-transferase) cells; experiment: cells; type: cell-based; settings: Homo sapiens, NCI/ADR-RES, read-out: Sensitivity of mdr lines
[12] = tested on: HL-60 parent cells; experiment: sensitivity of mdr lines, HL-60 parent; type: cell-based; settings: Homo sapiens
[13] = tested on: HL-60 ADR (gp150+) cells; experiment: sensitivity of mdr lines, HL-60 ADR; type: cell-based; settings: Homo sapiens, HL60/ADR
[14] = tested on: KB parent cells; experiment: sensitivity of mdr lines, KB parent; type: cell-based
[15] = tested on: KB C-1 (gp170+) cells; experiment: sensitivity of mdr lines, KB C-1; type: cell-based; settings: KBC-1
[16] = tested on: KB VBL (gp170+) cells; experiment: sensitivity of mdr lines, KB VBL; type: cell-based
[17] = tested on: L1210 DDPt (cis-plat) cells; experiment: sensitivity of mdr lines, L1210 DDPt; type: cell-based; settings: Mus musculus
[18] = tested on: L1210 BCNU cells; experiment: sensitivity of mdr lines, L1210 BCNU; type: cell-based; settings: Mus musculus
[19] = tested on: L1210 PAM (melphalan) cells; experiment: sensitivity of mdr lines, L1210 PAM; type: cell-based; settings: Mus musculus
[20] = tested on: L1210 CPA (cyclophos) cells; experiment: sensitivity of mdr lines, L1210 CPA; type: cell-based; settings: Mus musculus
[21] = tested on: HL-60 cells; experiment: cells; type: cell-based, human
[22] = tested on: HL60 cells; experiment: cells; type: cell-based; settings: Homo sapiens, HL-60, 48 h, read-out: 48 hour IC50
[23] = tested on: 8392 cells; experiment: cells; type: cell-based; settings: 48 h, read-out: 48 hour IC50
[24] = tested on: MV522; experiment: cells; type: cell-based; settings: Homo sapiens, MV522, 48 h, read-out: 48 hour IC50
[25] = tested on: SL-2 leukemia/lymphoma cells; experiment: SL-2 syngeneic model, increased life span; type: in vivo, murine
Description: The efficacy of dehydroilludin M was then screened in a syngeneic model using murine SL-2 cells. SL-2 leukemia/lymphoma cells are injected subcutaneously and metastasized to lymph nodes, spleen, and lungs, and drug efficacy in this model is determined by increased life span (ILS). The SL-2 cells were administered at 2.5 million cells per animal and treatment was delayed. for 7 days until the tumors were palpable. Ibis is a relatively stringent test .against established tumors and contrasts to general drug screens in the SL-2 model which normally use only 0.5 million cells and starting drug treatment at 3 days. […] When administered IV at 0.03 mg/kg, twice a week, the ILS increased to 38%.

[26] = tested on: HL60/MRI cells (human myeloid leukemia tumor cells)
[27] = tested on: human lung adenocarcinoma MV522; settings: in vivo
[28] = tested on: human lung adenocarcinoma MV522; experiment: animal or person; settings: MV522, ip, read-out: life span
[29] = tolerability in mice; settings: for MTD at 672 h: mouse, in vivo
[30] = tested on: CFU-GM; experiment: colony formation zone size, CFU-GM; settings: for Zone Size: CFU-GM
[31] = tested on: L1210; experiment: zone of inhibition / colony formation, L1210

CC1=C2C(=O)C(C)(C)C=C2C(=O)[C@](C)(O)C12CC2 [Dehydroilludin M]
IC50 [1]: 0.246 ± 0.019 µM | IC50 ([1]; read-out: Two hour IC50): 0.377 ± 0.081 µM | IC50 [2]: > 38 µM | IC50 ([2]; read-out: Two hour IC50): 61.3 µM | IC50 [3]: > 38 µM | IC50 [4]: > 38 µM | IC50 [5]: 0.653 ± 0.065 µM | IC50 [6]: 0.112 ± 0.017 µM | IC50 [7]: 1.83 µM | IC50 [8]: 0.054 ± 0.007 µM | IC50 [9]: 0.058 ± 0.011 µM | IC50 [10]: 0.092 ± 0.015 µM | IC50 [11]: 0.068 ± 0.015 µM | IC50 [12]: 0.163 ± 0.011 µM | IC50 [13]: 0.191 ± 0.044 µM | IC50 [14]: 0.125 ± 0.014 µM | IC50 [15]: 0.08 ± 0.018 µM | IC50 [16]: 0.078 ± 0.019 µM | IC50 [17]: 0.119 ± 0.039 µM | IC50 [18]: 0.1 ± 0.031 µM | IC50 [19]: 0.073 ± 0.031 µM | IC50 [20]: 0.038 ± 0.015 µM | toxicity to HL-60 cells [21]: less toxic | IC50 [22]: 0.296 ± 0.066 µM | IC50 [23]: 0.269 ± 0.1 µM | IC50 [24]: 0.313 ± 0.023 µM | ILS ([25]; 0.03 mg/kg IV twice a week): 38% | ILS ([25]; 30 mg/kg IP twice a week): 5% | ILS ([25]; 60 mg/kg IP twice a week): 18% | total tumor weight ([26]; 1 mg/kg IV, day 11): 114 ± 55 Mg | total tumor weight ([26]; 1 mg/kg IV, day 18): 883 ± 311 Mg | total tumor weight ([26]; 1 mg/kg IV, day 25): 2274 ± 992 Mg | total tumor weight ([26]; 1 mg/kg IV, day 32): 6025 ± 1772 Mg | total tumor weight ([26]; 1 mg/kg IV, day 40): 11507 ± 3707 Mg | total tumor weight ([26]; 3 mg/kg IV, day 11): 101 ± 40 Mg | total tumor weight ([26]; 3 mg/kg IV, day 18): 911 ± 309 Mg | total tumor weight ([26]; 3 mg/kg IV, day 25): 2127 ± 1092 Mg | total tumor weight ([26]; 3 mg/kg IV, day 32): 2854 ± 1260 Mg | total tumor weight ([26]; 3 mg/kg IV, day 40): 4784 ± 2303 Mg | tumor inhibition ([26]; IP twice a week, FIG. 6): dose related tumor inhibition | inhibition of tumor growth ([26]; IV twice a week, dose dependent): effective at inhibiting tumor growth | adverse effects (food or water intake, body weight) ([26]; highest amount of either drug, IV): did not display any evidence of adverse effect | efficacy in this model [27]: markedly increased the lifespan | response vs control in vivo at 30 mg/kg [28]: 163 ± 6% | toxicity to mice ([29]; 60,000 μg/kg IP twice a week): nontoxic | MTD at 672 h ([29]; ip): 60 mg/kg | MTD at 672 h ([29]; iv): 1 mg/kg | Zone Size ([30]; dilution 1/25): 200 | Zone Size ([30]; dilution 1/125): 100 | Zone Size ([30]; dilution 1/125 (repeat)): 50 | Zone Size ([30]; dilution 1/625): 0 | effect on CFU-gm cells ([30]; at concentrations inhibiting AML colony formation): no effect | Zone Size ([31]; L1210, dilution 1/25): 400 | Zone Size ([31]; L1210, dilution 1/125): 200 | Zone Size ([31]; L1210, dilution 1/125 (repeat)): 300 | Zone Size ([31]; L1210, dilution 1/625): 100
